What all share (test): Antibacterial activity in vitro, MIC by broth dilution
Common to all, as to assay type: cell-based

Assay [1] deals with E. coli D 31m4 pHCM1 Tc^r. Particulars: E. coli D 31m4 pHCM1, tetracycline resistant, 18 hrs. How it is done: (§1) Various compounds made in accordance with the invention were evaluated for anti-bacterial activity in vitro as follows. The minimum inhibitory concentration, the lowest concentration of drug that inhibits bacterial growth at 18 hrs at their appropriate temperature, is determined by the broth dilution method using L-broth or Mueller-Hinton broth. The Mueller-Hinton broth was cation-adjusted accordingly and all bacteriological methods were performed as was described by Waitz, J. A., National Commission for Clinical Laboratory Standards Document M7-A2, vol. 10, no. 8, pp. 13-20, 2nd edition, Villanova, Pa. (1990). The organisms tested represent gram-positive and gram-negative bacterial species that are susceptible to tetracyclines or are resistant to tetracyclines due to the ability to efflux tetracyclines or which confer resistance by ribosomal protection mechanisms. The clinical strains used are either susceptible to tetracyclines or are resistant to them by either drug efflux or ribosomal protection.

A further assay concerns E. coli D31m4 Tc^s. Particulars: E. coli D31m4, tetracycline susceptible, 18 hrs. How it is done: as §1
In the next assay the test system is S. aureus RN450 Tc^s. Particulars: S. aureus RN450, tetracycline susceptible, 18 hrs. How it is done: as §1
For a further assay, the system named is E. coli D1-209 Tc^r. Also on record: unit not given here. Particulars: E. coli D1-209, tetracycline resistant, 18 hrs. Here is the method: as §1
In the next assay the test system is E. coli D1-299 Tc^r. Also noted: unit not given here. Particulars: E. coli D1-299, tetracycline resistant, 18 hrs. Here is the method:
as §1

Another assay has as its system E. coli ML308-225 Tc^s. Also on record: unit not given here. Particulars: E. coli ML308-225, tetracycline susceptible, 18 hrs. Here is the method:
as §1

The subject of the next assay is E. hirae ATCC9790 Tc^s. Also noted: unit not given here. Particulars: E. hirae ATCC9790, tetracycline susceptible, 18 hrs. How it is done:
as §1

A further assay deals with S. aureus MRSA5 Tc^r. Also on record: unit not given here. Particulars: S. aureus MRSA5, tetracycline resistant, 18 hrs. How it is done:
as §1

In assay [2] the test system is S. warnerii Tc^r ATCC12715. Also on record: unit not given here. Particulars: S. warnerii ATCC12715, tetracycline resistant, 18 hrs. How it is done: as §1
In assay [3] the test system is E. hirae 9790 with pAM211 Tc^r. Particulars: E. hirae 9790 with pAM211, tetracycline resistant, 18 hrs. How it is done: as §1
Assay [4] has as its system E. hirae 9790 with pMV158 Tc^r. Particulars: E. hirae 9790 with pMV158, tetracycline resistant, 18 hrs. Here is the method:
as §1

The next assay has as its system S. aureus RN4250 Tc^r. Particulars: S. aureus RN4250, tetracycline resistant, 18 hrs. How it is done: as §1

Bounds are passed on as bounds.

Consider `CCCCOC(=O)/C=C/c1cc(N(C)C)c2c(c1O)C(=O)C1=C(O)C3(O)C(=O)C(C(N)=O)=C(O)C(N(C)C)C3CC1C2` (stereo not drawn) [F, [4S-(4a,12aα)]-9-[3′-(E)-butylpropenoate]-4,7-Bis(dimethylamino)-1,4,4a,5,5a,6,11,12a-octahydro-3,10,12,12a-tetrahydroxy-1,11-dioxo-2-naphthacenecarboxamide], for which the “Antibacterial Activity (minimum inhibitory concentration)” value in [1] is 6.25; with E. coli D31m4 Tc^s, 3.12; in the assay with S. aureus RN450 Tc^s, 1.56; in the assay with E. coli D1-209 Tc^r, over 50; in the assay with E. coli D1-299 Tc^r, over 50; in the assay with E. coli ML308-225 Tc^s, over 50. The “Antibacterial Activity (minimum inhibitory concentration)” value (with E. hirae ATCC9790 Tc^s; with S. aureus MRSA5 Tc^r; in assay [2]) was 3.12 in each case.
`CCOc1ccc(C=C2c3cccc(O)c3C(=O)C3=C(O)C4(O)C(=O)C(C(N)=O)=C(O)C(N(C)C)C4C(O)C23)cc1` (stereo not drawn) [K, [4S-(4a,12aα)]-13-(4′-ethoxyphenyl)-4-(dimethylamino)-1,4,4a,5,5a,6,11,12a-octahydro-3,5,10,12,12a-pentahydroxy-6-methylene-1,11-dioxo-2-naphthacenecarboxamide]: the “Antibacterial Activity (minimum inhibitory concentration)” value in assay [1] is reported as over 50; in [3], 3.12; in the assay on S. aureus RN450 Tc^s it was 0.195; with E. coli D1-209 Tc^r, over 50; with E. coli D1-299 Tc^r it was over 50; in the assay on E. hirae ATCC9790 Tc^s it was 0.39. Further, the figures for the “Antibacterial Activity (minimum inhibitory concentration)” value (in the assay with S. aureus MRSA5 Tc^r; in assay [2]) were 6.25 and 12.5, respectively.
As to `CN(C)C1C(O)=C(C(N)=O)C(=O)C2(O)C(O)=C3C(=O)c4c(O)c(-c5ccccc5)cc(-c5ccccc5)c4CC3CC12` (stereo not drawn) [H, [4S-(4a,12aα)]-7-phenyl-9-phenyl-4-(dimethylamino)-1,4,4a,5,5a,6,11,12a-octahydro-3,10,12,12a-tetrahydroxy-1,11-dioxo-2-naphthacenecarboxamide], the “Antibacterial Activity (minimum inhibitory concentration)” value in the assay on E. coli D31m4 Tc^s is on record as 1.56; in [4], 0.39; in the assay on S. aureus RN4250 Tc^r, 0.78; in the assay on S. aureus RN450 Tc^s, 1.56; in the assay on E. coli D1-209 Tc^r, over 50; in the assay with E. coli D1-299 Tc^r, over 50. Moreover, the “Antibacterial Activity (minimum inhibitory concentration)” value in the assay on E. coli ML308-225 Tc^s is on record as over 50; in the assay on E. hirae ATCC9790 Tc^s, 0.78; in the assay with S. aureus MRSA5 Tc^r, 0.78; in [2], 0.78.
In the case of `CN(C)[C@@H]1C(O)=C(C(N)=O)C(=O)C2(O)C(O)=C3C(=O)c4c(O)cccc4C(=Cc4cccc(C(=O)O)c4)C3C(O)C12` (stereo partly drawn) [J, [4S-(4a,12aα)]-13-(3′-carboxyphenyl)-4-(dimethylamino)-1,4,4a,5,5a,6,11,12a-octahydro-3,5,10,12,12a-pentahydroxy-6-methylene-1,11-dioxo-2-naphthacenecarboxamide], the “Antibacterial Activity (minimum inhibitory concentration)” value in [1] is over 50; in the assay with E. coli D31m4 Tc^s, over 50; in assay [3] it was over 50; in assay [4], over 50; with S. aureus RN4250 Tc^r it was over 50; in the assay with S. aureus RN450 Tc^s, 0.39. For the same compound, the “Antibacterial Activity (minimum inhibitory concentration)” value in the assay on E. coli D1-209 Tc^r is listed as over 50; in the assay with E. coli D1-299 Tc^r, over 50; in the assay with E. coli ML308-225 Tc^s, over 50; in the assay on E. hirae ATCC9790 Tc^s, 3.12; with S. aureus MRSA5 Tc^r, over 50; in assay [2], over 50.
As for `CN(C)C1C(O)=C(C(N)=O)C(=O)C2(O)C(O)=C3C(=O)c4c(O)ccc(-c5ccc(Cl)cc5)c4CC3CC12` (centres unmarked) [G], the “Antibacterial Activity (minimum inhibitory concentration)” value in [1] was 0.78; in the assay on E. coli D31m4 Tc^s, 0.78; in [3] it was “≦0.098”; in [4] it was “≦0.098”; in the assay with S. aureus RN4250 Tc^r, “≦0.098”; in the assay with S. aureus RN450 Tc^s it was “≦0.098”. The “Antibacterial Activity (minimum inhibitory concentration)” value in the assay on E. coli D1-209 Tc^r was over 50; in the assay on E. coli D1-299 Tc^r, over 50; in the assay with E. coli ML308-225 Tc^s, over 50; in the assay with E. hirae ATCC9790 Tc^s, “≦0.098”; in the assay on S. aureus MRSA5 Tc^r, 0.195; in assay [2] it was “≦0.098”.
Turning to `Cc1ccc(C=C2c3cccc(O)c3C(=O)C3=C(O)C4(O)C(=O)C(C(N)=O)=C(O)C(N(C)C)C4C(O)C23)cc1` (stereo not drawn) [I, [4S-(4a,12aα)]-13-(4′-methylphenyl)-4-(dimethylamino)-1,4,4a,5,5a,6,11,12a-octahydro-3,5,10,12,12a-pentahydroxy-6-methylene-1,11-dioxo-2-naphthacenecarboxamide], the “Antibacterial Activity (minimum inhibitory concentration)” value in assay [1] is 25; in [4] it was 3.12; in the assay with S. aureus RN450 Tc^s it was “≦0.098”; in the assay with E. coli D1-209 Tc^r, over 50; in the assay on E. coli D1-299 Tc^r, over 50; in the assay on E. coli ML308-225 Tc^s, over 50. In addition, the “Antibacterial Activity (minimum inhibitory concentration)” value was found to be 0.39 in the assay with E. hirae ATCC9790 Tc^s, 6.25 in the assay on S. aureus MRSA5 Tc^r and 12.5 in assay [2].
As to `CCCCOC(=O)/C=C/c1ccc2c(c1O)C(=O)C1=C(O)C3(O)C(=O)C(C(N)=O)=C(O)[C@@H](N(C)C)C3C(O)C1C2C` (stereo partly drawn) [E, [4S-(4a,12aα)]-9-[3′-(E)-butylpropenoate]-4-(dimethylamino)-1,4,4a,5,5a,6,11,12a-octahydro-3,5,10,12,12a-pentahydroxy-6-methyl-1,11-dioxo-2-naphthacenecarboxamide], the “Antibacterial Activity (minimum inhibitory concentration)” value in the assay on S. aureus RN450 Tc^s was 0.78; in the assay on E. coli D1-209 Tc^r, over 50; in the assay on E. coli D1-299 Tc^r, over 50; in the assay on E. coli ML308-225 Tc^s it was 6.25; in the assay on E. hirae ATCC9790 Tc^s, 3.12; in the assay on S. aureus MRSA5 Tc^r, 0.39. Also, in assay [2], the “Antibacterial Activity (minimum inhibitory concentration)” value worked out at 6.25.
As for `C[C@H]1c2cccc(O)c2C(=O)C2=C(O)[C@]3(O)C(=O)C(C(N)=O)=C(O)[C@@H](N(C)C)[C@@H]3[C@@H](O)[C@@H]21` [Doxy, [4S-(4a,12aα)]-4-(dimethylamino)-1,4,4a,5,5a,6,11,12a-octahydro-3,5,10,12,12a-pentahydroxy-6-methyl-1,11-dioxo-2-naphthacenecarboxamide, reference compound], the “Antibacterial Activity (minimum inhibitory concentration)” value is 25 in assay [1]; 1.56 in the assay on E. coli D31m4 Tc^s; 25 with S. aureus RN4250 Tc^r; under 0.098 with S. aureus RN450 Tc^s; 50 in the assay on E. coli D1-209 Tc^r; 25 in the assay on E. coli D1-299 Tc^r. Besides, the “Antibacterial Activity (minimum inhibitory concentration)” value with E. coli ML308-225 Tc^s came out at 0.78; in the assay on E. hirae ATCC9790 Tc^s, 0.195; in the assay on S. aureus MRSA5 Tc^r it was 6.25; in assay [2], 50.

The values above are taken from patent publication US8106225B2, “Methods of preparing substituted tetracyclines with transition metal-based chemistries” (Trustees of Tufts College, priority 1999, dated 2012).
